In US10253002B2, “Compounds and methods of treating infections” (Neoculi Pty Ltd., priority 2013, dated 2019):
≈ marks a conversion by molar mass, not a printed value. Where “and” joins values, the source holds several entries; their conditions need not be identical. Equal entries are not always repeated.

Columns and labels:
Test in all cases: Broth microdilution MIC, Example 7 (NCL812 and analogues)
VRE = type: cell-based, Enterococcus spp.; details: for activity against VRE among analogues: MIC testing, two VRE strains
Method in brief: (§1)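 Isolates were tested in duplicate, with a third run if replicates differed by more than one two-fold dilution; inoculum purity was checked on sheep blood agar.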

Escherichia coli = type: cell-based; details: 24 hours
Pseudomonas aeruginosa = type: cell-based; details: 24 hours
MRSA = type: cell-based, Staphylococcus aureus; details: for activity against MRSA among analogues: MIC testing, two MRSA strains
Method in brief: as §1

[1] = isolate VRE 1, 24 hours, 1st and 2nd replicate rows
[2] = isolate VRE 2, 24 hours, 1st and 2nd replicate rows
[3] = isolate MRSA 1, 24 hours, 1st and 2nd replicate rows
[4] = isolate MRSA 2, 24 hours, 1st and 2nd replicate rows
[5] = VRE 1, 24 hours, duplicate lines per compound
[6] = VRE 2, 24 hours, duplicate lines per compound
[7] = E. coli, duplicate lines per compound
[8] = P. aeruginosa, duplicate lines per compound
[9] = MRSA 1, 24 hours, duplicate lines per compound
[10] = MRSA 2, 24 hours, duplicate lines per compound

Row | SMILES | MIC (μg/ml) at 24 hours, VRE 1 (VRE; [1]) | MIC (μg/ml) at 24 hours, VRE 2 (VRE; [2]) [µg/mL] | MIC (μg/ml) at 24 hours, E. coli (Escherichia coli; 1st and 2nd replicate rows) [µg/mL] | MIC (μg/ml) at 24 hours, P. aeruginosa (Pseudomonas aeruginosa; 1st and 2nd replicate rows) [µg/mL] | MIC (μg/ml) at 24 hours, MRSA 1 (MRSA; [3]) [µg/mL] | MIC (μg/ml) at 24 hours, MRSA 2 (MRSA; [4]) [µg/mL] | MIC (μg/ml) at 24 hours, VRE 1 (VRE; [5]) [µg/mL] | MIC (μg/ml) at 24 hours, VRE 2 (VRE; [6]) [µg/mL] | MIC (μg/ml) at 24 hours, E. coli (Escherichia coli; [7]) [µg/mL] | MIC (μg/ml) at 24 hours, P. aeruginosa (Pseudomonas aeruginosa; [8]) [µg/mL] | MIC (μg/ml) at 24 hours, MRSA 1 (MRSA; [9]) [µg/mL] | MIC (μg/ml) at 24 hours, MRSA 2 (MRSA; [10]) [µg/mL] | further results
1 | CN(C)c1ccc(C=NNC(=N)NN=Cc2ccc(N(C)C)cc2O)c(O)c1 [NCL171] |  |  |  |  |  |  |  |  |  |  |  |  | activity against VRE among analogues (VRE): greatest activity; MIC (μg/ml) at 24 hours, VRE 1 (VRE; VRE 1, 24 hours): 32 µg/mL (≈ 83.5 µM); MIC (μg/ml) at 24 hours, VRE 2 (VRE; VRE 2, 24 hours): >128 µg/mL; MIC (μg/ml) at 24 hours, E. coli (Escherichia coli; E. coli): >128 µg/mL; MIC (μg/ml) at 24 hours, P. aeruginosa (Pseudomonas aeruginosa; P. aeruginosa): >128 µg/mL; activity against MRSA among analogues (MRSA): greatest activity; MIC (μg/ml) at 24 hours, MRSA 1 (MRSA; MRSA 1, 24 hours): 128 µg/mL (≈ 334 µM); MIC (μg/ml) at 24 hours, MRSA 2 (MRSA; MRSA 2, 24 hours): 64 µg/mL (≈ 167 µM)
2 | Cl.N=C(NN=Cc1ccc(Cl)o1)NN=Cc1ccc(Cl)o1 [NCL 145] |  |  |  |  |  |  | >128 | >128 | >128 | >128 | >128 | >128 | 
3 | Cl.N=C(N/N=C/c1c(F)c(F)c(F)c(F)c1F)N/N=C/c1c(F)c(F)c(F)c(F)c1F [NCL 128] |  |  |  |  |  |  | >128 | >128 | >128 | >128 | >128 | >128 | 
4 | Cl.N=C(NN=Cc1ccc2[nH]ccc2c1)NN=Cc1ccc2[nH]ccc2c1 [NCL 146] |  |  |  |  |  |  | 16 | 16 | >128 | >128 | 8 | 16 | 
5 | Cl.N=C(NN=Cc1ccc(Cl)cc1O)NN=Cc1ccc(Cl)cc1O [NCL 174] |  |  |  |  |  |  |  |  |  |  |  |  | MIC (μg/ml) at 24 hours, VRE 1 (VRE; VRE 1, 24 hours): 4 µg/mL; MIC (μg/ml) at 24 hours, VRE 2 (VRE; VRE 2, 24 hours): 32 µg/mL; MIC (μg/ml) at 24 hours, E. coli (Escherichia coli; E. coli): >128 µg/mL; MIC (μg/ml) at 24 hours, P. aeruginosa (Pseudomonas aeruginosa; P. aeruginosa): >128 µg/mL; MIC (μg/ml) at 24 hours, MRSA 1 (MRSA; MRSA 1, 24 hours): 32 µg/mL; MIC (μg/ml) at 24 hours, MRSA 2 (MRSA; MRSA 2, 24 hours): 32 µg/mL

Now from value to compound, other results behind:

Row | MIC (μg/ml) at 24 hours, VRE 1 (VRE; [1]) | MIC (μg/ml) at 24 hours, VRE 2 (VRE; [2]) [µg/mL] | MIC (μg/ml) at 24 hours, E. coli (Escherichia coli; 1st and 2nd replicate rows) [µg/mL] | MIC (μg/ml) at 24 hours, P. aeruginosa (Pseudomonas aeruginosa; 1st and 2nd replicate rows) [µg/mL] | MIC (μg/ml) at 24 hours, MRSA 1 (MRSA; [3]) [µg/mL] | MIC (μg/ml) at 24 hours, MRSA 2 (MRSA; [4]) [µg/mL] | MIC (μg/ml) at 24 hours, VRE 1 (VRE; [5]) [µg/mL] | MIC (μg/ml) at 24 hours, VRE 2 (VRE; [6]) [µg/mL] | MIC (μg/ml) at 24 hours, E. coli (Escherichia coli; [7]) [µg/mL] | MIC (μg/ml) at 24 hours, P. aeruginosa (Pseudomonas aeruginosa; [8]) [µg/mL] | MIC (μg/ml) at 24 hours, MRSA 1 (MRSA; [9]) [µg/mL] | MIC (μg/ml) at 24 hours, MRSA 2 (MRSA; [10]) [µg/mL] | SMILES | further results
6 | >128 µg/mL | >128 | >128 | >128 | >128 | >128 |  |  |  |  |  |  | N#Cc1ccccc1C=NNC(=S)NN=Cc1ccccc1C#N [NCL064] | 
7 | >126 µg/mL and >128 µg/mL | >128 | >128 | >128 | >128 | >128 |  |  |  |  |  |  | Cl.N=C(NN=Cc1cccc(C(F)(F)F)c1)NN=Cc1cccc(C(F)(F)F)c1 [NCL037] | 
8 | >128 µg/mL | >128 | >128 | >128 | >128 | >128 |  |  |  |  |  |  | NC(=O)N/N=C/c1cccc(Cl)c1 [NCL055] | 
9 |  |  |  |  |  |  | >128 | >128 | >128 | >128 | >128 | >128 | Cl.N=C(N/N=C/c1ccccc1)N/N=C/c1ccccc1 [NCL100] | 
10 |  |  |  |  |  |  | 64 | 128 | >128 | >128 | 128 | 128 | Cl.N=C(NN=CC1CCCCC1)NN=CC1CCCCC1 [NCL094] | activity against VRE among analogues (VRE): greatest activity; activity against MRSA among analogues (MRSA): greatest activity
